Experimental data from US20250129045A1, “SMALL MOLECULE PIM AND MTOR KINASE INHIBITOR AND METHODS OF USE THEREOF” (Arizona Board of Regents on Behalf of the University of …, priority 2022, published 2025).

How the values were obtained:
Format in all cases: cell-based
Prostate Cancer Growth = test: SAR studies using inhibition of prostate cancer growth as a readout; settings: SAR by substituent position
mTORC = test: Phosphorylation of mTORC substrates in PANC1 cells (Western blot); settings: overnight incubation, FIG. 19
Description: Immunoblotting: Western blots were performed as described previously. Briefly, protein lysates (30 μg) were subjected to SDS-PAGE and transferred to nitrocellulose membranes. After blocking with 5% milk in TBST buffer for 30 min at room temperature, the membranes were incubated overnight at 4° C. with the Indicated primary antibody in 3% BSA in TBST. Specific proteins were detected with the corresponding HRP conjugated secondary antibody using enhanced chemiluminescence (GE Lifesciences, Piscataway, NJ).
(§1) Because of ease of growth, PANC1 pancreatic cancer cells were used to test the activity of derivatives of VBT-5445 (FIG. 14). […] Using a doxycycline inducible Pim kinase vector in these tumor cells, this inhibition of phosphorylation was proportional to the level of Pim in these cells (FIG. 9). […] Inhibition of mTORC1 is known to stimulate the feedback activation of mTORC2 leading to AKT phosphorylation. […] The effect of these compounds on mTORC1 and 2 was still evident in PC3-LN4 cells that contained a knockout (KO) using CRISPR/CAS9 of either TSC2 or DEPDC5 (FIG. 12, lanes 4-9). TSC2 KO activated the Rheb GTPase while DEPDC5 KO activated the RAG GTPase both of which stimulate mTORC1 activity. Thus, GRG compounds were capable of inhibiting mTORC1 activity even when this kinase was highly activated.

[1] = test system: PANC1 pancreatic cancer cells; test: Growth inhibition of PANC1 pancreatic cancer cells
Description: Cell growth assay: Tumor cells were seeded into 48 well plates (1000 cells/well) and treated with varied agents. The Incucyte real-time imaging system (Incucyte) was used to measure cell proliferation using a non-label cell monolayer confluence approach. The images were captured every 12 h. Graphs were generated using an integrated confluence metric as an alternative for cell numbers. At the end of the study cell growth was visualized by crystal violet staining.
as §1

PANC1 cells = test: Reverse-phase protein array (RPPA) of PANC1 cells, Table 3; settings: 6 h treatment, divided by zero-time value, average of triplicate
Description: To further examine how these compounds function to inhibit tumor growth, changes in both a wide variety of phosphoprotein and protein levels using reverse-phase protein arrays (RPPA) were evaluated. […] The values in the RPPA obtained at these two time points were divided by the value at time zero to allow an evaluation of the changes caused by each drug treatment.

Cc1ccnc(CNCc2cc3ccc(Cl)cc3n(CCOc3ccccc3)c2=O)c1 [GRG-1-96]
Activity (inhibition of prostate cancer growth) (Prostate Cancer Growth): 6 active compounds

COc1ccc(OCCn2c(=O)c(CNCc3cc(Cl)ccn3)cc3ccc(Cl)cc32)cc1 [GRG-1-167]
Activity (inhibition of prostate cancer growth) (Prostate Cancer Growth): substitution decreases activity

COc1ccc(OCCn2c(=O)c(CNCc3cc(Br)ccn3)cc3ccc(Cl)cc32)cc1 [GRG-1-166]
Activity (inhibition of prostate cancer growth) (Prostate Cancer Growth): Brings activity, though 4-chloro

O=c1c(CNCc2cc(Br)ccn2)cc2ccc(N3CCOCC3)cc2n1CCOc1ccccc1 [GRG-02-24]
Activity (inhibition of prostate cancer growth) (Prostate Cancer Growth): Contributes to loss of activity

O=c1c(CNCc2ccccn2)cc2ccc(Cl)cc2n1CCSc1ccccc1 [GRG-1-104, 7-chloro-1-(2-(phenylthio)ethyl)-3-(((pyridin-2-ylmethyl)amino)methyl)quinolin-2 (1H)-one]
Activity (inhibition of prostate cancer growth) (Prostate Cancer Growth): Active
block of phosphorylation of mTORC substrates (AKT, 4E-BP1, S6) (mTORC): block the phosphorylation of mTORC substrates
growth inhibitory activity against PANC1 pancreatic cancer cells [1]: most active

O=c1c(CNCc2cccc(Br)n2)cc2ccc(Cl)cc2n1CCOc1ccccc1 [ZH-2-44]
Activity (inhibition of prostate cancer growth) (Prostate Cancer Growth): 1 active compound (methoxy)

COc1ccc(OCCn2c(=O)c(CNCc3cc(C(F)(F)F)ccn3)cc3ccc(Cl)cc32)cc1 [GRG-1-127]
Activity (inhibition of prostate cancer growth) (Prostate Cancer Growth): Brings activity, though 4-chloro

O=c1c(COCc2ccccc2)cc2ccc(Cl)cc2n1CCOc1ccccc1 [GRG-1-60]
Activity (inhibition of prostate cancer growth) (Prostate Cancer Growth): Contributes to loss of activity
block of phosphorylation of mTORC substrates (AKT, 4E-BP1, S6) (mTORC): not
growth inhibitory activity against PANC1 pancreatic cancer cells [1]: inactive

COc1ccc(CNCc2cc3ccc(Cl)cc3n(CCOc3ccccc3)c2=O)nc1 [GRG-1-27]
Activity (inhibition of prostate cancer growth) (Prostate Cancer Growth): 2 active compounds

O=c1c(CNCc2ncccc2F)cc2ccc(Cl)cc2n1CCOc1ccccc1 [ZH-2-50]
Activity (inhibition of prostate cancer growth) (Prostate Cancer Growth): Less active

COc1ccc(OCCn2c(=O)c(CNCc3ccccn3)cc3ccc(Cl)cc32)cc1 [GRG-1-70]
Activity (inhibition of prostate cancer growth) (Prostate Cancer Growth): Brings activity, though 4-chloro

O=c1c(CNCc2ccc(C(F)(F)F)cn2)cc2ccc(Cl)cc2n1CCOc1ccccc1 [GRG-1-28]
Activity (inhibition of prostate cancer growth) (Prostate Cancer Growth): 2 active compounds

Cc1cccc(CNCc2cc3ccc(Cl)cc3n(CCOc3ccccc3)c2=O)n1 [GRG-1-31]
block of phosphorylation of mTORC substrates (AKT, 4E-BP1, S6) (mTORC): block the phosphorylation of mTORC substrates
growth inhibitory activity against PANC1 pancreatic cancer cells [1]: most active

COc1ccnc(CNCc2cc3ccc(Cl)cc3n(CCOc3ccccc3)c2=O)c1 [GRG-1-95]
Activity (inhibition of prostate cancer growth) (Prostate Cancer Growth): 6 active compounds

O=C(NCc1cc2ccc(Cl)cc2n(CCOc2ccccc2)c1=O)c1ccccn1 [GRG-1-94, N-((7-chloro-2-oxo-1-(2-phenoxyethyl)-1,2-dihydroquinolin-3-yl)methyl) picolinamide]
block of phosphorylation of mTORC substrates (AKT, 4E-BP1, S6) (mTORC): not
growth inhibitory activity against PANC1 pancreatic cancer cells [1]: inactive

CC(C)n1nc(-c2cc3cc(O)ccc3[nH]2)c2c(N)ncnc21 [pp242, reference compound]
4EBP1S65, RPPA value after treatment / zero-time value (PANC1 cells): 0.22
4EBP1T70, RPPA value after treatment / zero-time value (PANC1 cells): 0.32
ATMS1981, RPPA value after treatment / zero-time value (PANC1 cells): 0.46
CICaspase3D175, RPPA value after treatment / zero-time value (PANC1 cells): 0.7
CofilinS3, RPPA value after treatment / zero-time value (PANC1 cells): 0.6
CrkIIY221, RPPA value after treatment / zero-time value (PANC1 cells): 1.57
ERKT202_Y204, RPPA value after treatment / zero-time value (PANC1 cells): 2.04
FAKY576_577, RPPA value after treatment / zero-time value (PANC1 cells): 0.81
FKHR-FOX01S256, RPPA value after treatment / zero-time value (PANC1 cells): 1.03
GSK3a_bS21_9, RPPA value after treatment / zero-time value (PANC1 cells): 1.09
HistoneH2AXS139, RPPA value after treatment / zero-time value (PANC1 cells): 1.19
HistoneH3S10, RPPA value after treatment / zero-time value (PANC1 cells): 0.64
IL-1bcleavedD116, RPPA value after treatment / zero-time value (PANC1 cells): 0.46
Jak1Y1022_1023, RPPA value after treatment / zero-time value (PANC1 cells): 0.71
MAPKpTEpY, RPPA value after treatment / zero-time value (PANC1 cells): 0.64
PDGFRbY751, RPPA value after treatment / zero-time value (PANC1 cells): 0.67
PP1aT320, RPPA value after treatment / zero-time value (PANC1 cells): 0.61
PaxillinY118, RPPA value after treatment / zero-time value (PANC1 cells): 0.9
RetY905, RPPA value after treatment / zero-time value (PANC1 cells): 0.25
S6RibosomalPS235_236, RPPA value after treatment / zero-time value (PANC1 cells): 0.34
S6RibosomalProtein S240_244, RPPA value after treatment / zero-time value (PANC1 cells): 0.66
SAPK_JNKT183_Y185, RPPA value after treatment / zero-time value (PANC1 cells): 1.07
Stat2Y690, RPPA value after treatment / zero-time value (PANC1 cells): 0.76
Stat3Y705, RPPA value after treatment / zero-time value (PANC1 cells): 0.51
Tyk2Y1054_1055, RPPA value after treatment / zero-time value (PANC1 cells): 0.51
VEGFR2Y1175, RPPA value after treatment / zero-time value (PANC1 cells): 0.34
YAPS127, RPPA value after treatment / zero-time value (PANC1 cells): 0.76
cAbIY245, RPPA value after treatment / zero-time value (PANC1 cells): 1.54
cKitY703, RPPA value after treatment / zero-time value (PANC1 cells): 1.09
p38MAPKT180_Y182, RPPA value after treatment / zero-time value (PANC1 cells): 0.59
p70S6KS371, RPPA value after treatment / zero-time value (PANC1 cells): 0.39
p70S6KT389, RPPA value after treatment / zero-time value (PANC1 cells): 0.29
p90RSKS380, RPPA value after treatment / zero-time value (PANC1 cells): 0.91

CN(Cc1ccccn1)Cc1cc2ccc(Cl)cc2n(CCOc2ccccc2)c1=O [GRG-1-61]
Activity (inhibition of prostate cancer growth) (Prostate Cancer Growth): Reduces activity to some extent

O=c1c(COCc2ccccn2)cc2ccc(Cl)cc2n1CCOc1ccccc1 [GRG-1-63]
Activity (inhibition of prostate cancer growth) (Prostate Cancer Growth): Contributes to loss of activity
